#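 Compound exposure: 48 hours, 5 concentrations, 96-well plates. GI50 = concentration required for 50% inhibition of growth.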 The source made the active and inactive calls. Rule as the data show it: active = GI50 up to about 1.1 µM and inactive = higher.
# Tests used:
# Experiment in all cases: NCI-60 cell line screen, 48 h
# 786-0 = system: 786-0
# A498 = system: A498
# A549 = system: A549
# ACHN = system: ACHN
# BT-549 = system: BT-549
# CAKI-1 = system: CAKI-1
# EKVX = system: EKVX
# HCC 2998 = system: HCC 2998
# HCT-116 = system: HCT-116
# HCT-15 = system: HCT-15
# HL-60 = system: HL-60
# HOP-62 = system: HOP-62
# HOP-92 = system: HOP-92
# HT-29 = system: HT-29
# Hs-578T = system: Hs-578T
# IGROV-1 = system: IGROV-1
# K562 = system: K562
# KM12 = system: KM12
# M14 = system: M14
# MCF7 = system: MCF7
# MDA-MB-231 = system: MDA-MB-231
# MDA-N = system: MDA-N
# MOLT-4 = system: MOLT-4
# Malme-3M = system: Malme-3M
# NCI-H226 = system: NCI-H226
# NCI-H460 = system: NCI-H460
# NCI-H522 = system: NCI-H522
# NCI/ADR-RES = system: NCI/ADR-RES
# OVCAR-3 = system: OVCAR-3
# OVCAR-4 = system: OVCAR-4
# OVCAR-8 = system: OVCAR-8
# PC-3 = system: PC-3
# RXF 393 = system: RXF 393
# SF-268 = system: SF-268
# SK-MEL-28 = system: SK-MEL-28
# SK-MEL-2 = system: SK-MEL-2
# SK-MEL-5 = system: SK-MEL-5
# SK-OV-3 = system: SK-OV-3
# SNB-19 = system: SNB-19
# SNB-75 = system: SNB-75
# SR = system: SR
# SW-620 = system: SW-620
# T47D = system: T47D
# TK-10 = system: TK-10
# U-251 = system: U-251
# UACC-257 = system: UACC-257
# UACC-62 = system: UACC-62
# UO-31 = system: UO-31
# CCRF-CEM = system: CCRF-CEM
# COLO 205 = system: COLO 205
# DU-145 = system: DU-145
# LOX IMVI = system: LOX IMVI
# MDA-MB-435 = system: MDA-MB-435
# NCI-H23 = system: NCI-H23
# OVCAR-5 = system: OVCAR-5
# RPMI-8226 = system: RPMI-8226
# SF-295 = system: SF-295
# SN12C = system: SN12C
# SF-539 = system: SF-539
structure (smiles),measurement,setting,value
CC1(C)CCC2=C(O1)c1ccccc1/C(=N/c1ccc([N+](=O)[O-])cc1)C2=O,GI50,786-0,20 µM (inactive)
same,GI50,A498,18.7 µM (inactive)
same,GI50,A549,16.4 µM (inactive)
same,GI50,ACHN,12.9 µM (inactive)
same,GI50,BT-549,20.1 µM (inactive)
same,GI50,CAKI-1,16.7 µM (inactive)
same,GI50,EKVX,16.4 µM (inactive)
same,GI50,HCC 2998,17.7 µM (inactive)
same,GI50,HCT-116,7.33 µM (inactive)
same,GI50,HCT-15,31 µM
same,GI50,HL-60,0.728 µM (active)
same,GI50,HOP-62,17.1 µM (inactive)
same,GI50,HOP-92,39.1 µM (inactive)
same,GI50,HT-29,12.7 µM (inactive)
same,GI50,Hs-578T,29 µM (inactive)
same,GI50,IGROV-1,51.1 µM (inactive)
same,GI50,K562,13.4 µM (inactive)
same,GI50,KM12,14.5 µM (inactive)
same,GI50,M14,8.24 µM (inactive)
same,GI50,MCF7,13.2 µM (inactive)
same,GI50,MDA-MB-231,17.7 µM (inactive)
same,GI50,MDA-N,14.9 µM (inactive)
same,GI50,MOLT-4,13.8 µM (inactive)
same,GI50,Malme-3M,16 µM (inactive)
same,GI50,NCI-H226,12.4 µM (inactive)
same,GI50,NCI-H460,15.5 µM (inactive)
same,GI50,NCI-H522,13.6 µM (inactive)
same,GI50,NCI/ADR-RES,21.2 µM (inactive)
same,GI50,OVCAR-3,12.3 µM (inactive)
same,GI50,OVCAR-4,15.1 µM (inactive)
same,GI50,OVCAR-8,14 µM (inactive)
same,GI50,PC-3,14 µM (inactive)
same,GI50,RXF 393,16.5 µM (inactive)
same,GI50,SF-268,29.7 µM (inactive)
same,GI50,SK-MEL-28,16.3 µM (inactive)
same,GI50,SK-MEL-2,16.1 µM (inactive)
same,GI50,SK-MEL-5,16.7 µM (inactive)
same,GI50,SK-OV-3,17.7 µM (inactive)
same,GI50,SNB-19,18.5 µM (inactive)
same,GI50,SNB-75,18.3 µM (inactive)
same,GI50,SR,14.2 µM (inactive)
same,GI50,SW-620,16.1 µM (inactive)
same,GI50,T47D,11.8 µM (inactive)
same,GI50,TK-10,18.6 µM (inactive)
same,GI50,U-251,14.4 µM (inactive)
same,GI50,UACC-257,16.5 µM (inactive)
same,GI50,UACC-62,14.7 µM (inactive)
same,GI50,UO-31,10.6 µM (inactive)
N=C(c1ccc(-c2cn3cc(C(=N)N4CCCC4)ccc3n2)cc1)N1CCCC1,GI50,786-0,> 100 µM (inactive)
same,GI50,A549,> 100 µM (inactive)
same,GI50,ACHN,> 100 µM (inactive)
same,GI50,BT-549,> 100 µM (inactive)
same,GI50,CAKI-1,> 100 µM (inactive)
same,GI50,CCRF-CEM,20.8 µM (inactive)
same,GI50,COLO 205,> 100 µM (inactive)
same,GI50,DU-145,> 100 µM (inactive)
same,GI50,EKVX,> 100 µM (inactive)
same,GI50,HCT-116,> 100 µM (inactive)
same,GI50,HCT-15,> 100 µM
same,GI50,HL-60,0.0303 µM (active)
same,GI50,HOP-62,> 100 µM (inactive)
same,GI50,HOP-92,3.86 µM (inactive)
same,GI50,HT-29,> 100 µM (inactive)
same,GI50,Hs-578T,> 100 µM (inactive)
same,GI50,IGROV-1,> 100 µM (inactive)
same,GI50,K562,> 100 µM (inactive)
same,GI50,KM12,> 100 µM (inactive)
same,GI50,LOX IMVI,> 100 µM (inactive)
same,GI50,M14,> 100 µM (inactive)
same,GI50,MDA-MB-231,> 100 µM (inactive)
same,GI50,MDA-MB-435,> 100 µM (inactive)
same,GI50,MDA-N,> 100 µM (inactive)
same,GI50,MOLT-4,> 100 µM (inactive)
same,GI50,Malme-3M,> 100 µM (inactive)
same,GI50,NCI-H226,> 100 µM (inactive)
same,GI50,NCI-H23,> 100 µM (inactive)
same,GI50,NCI-H522,> 100 µM (inactive)
same,GI50,NCI/ADR-RES,> 100 µM (inactive)
same,GI50,OVCAR-3,> 100 µM (inactive)
same,GI50,OVCAR-4,> 100 µM (inactive)
same,GI50,OVCAR-5,> 100 µM (inactive)
same,GI50,OVCAR-8,> 100 µM (inactive)
same,GI50,PC-3,> 100 µM (inactive)
same,GI50,RPMI-8226,> 100 µM (inactive)
same,GI50,RXF 393,> 100 µM (inactive)
same,GI50,SF-268,> 100 µM (inactive)
same,GI50,SF-295,> 100 µM (inactive)
same,GI50,SK-MEL-28,> 100 µM (inactive)
same,GI50,SK-MEL-2,> 100 µM (inactive)
same,GI50,SK-MEL-5,> 100 µM (inactive)
same,GI50,SK-OV-3,> 100 µM (inactive)
same,GI50,SN12C,> 100 µM (inactive)
same,GI50,SNB-19,> 100 µM (inactive)
same,GI50,SNB-75,> 100 µM (inactive)
same,GI50,SR,> 100 µM (inactive)
same,GI50,SW-620,> 100 µM (inactive)
same,GI50,T47D,> 100 µM (inactive)
same,GI50,TK-10,> 100 µM (inactive)
same,GI50,U-251,> 100 µM (inactive)
same,GI50,UACC-257,> 100 µM (inactive)
same,GI50,UACC-62,> 100 µM (inactive)
same,GI50,UO-31,> 100 µM (inactive)
CN(C)CCNC(=O)c1cc([N+](=O)[O-])cc2c1Oc1ccccc1O2,GI50,786-0,15.6 µM (inactive)
same,GI50,A498,25.1 µM (inactive)
same,GI50,A549,13.5 µM (inactive)
same,GI50,ACHN,6.46 µM (inactive)
same,GI50,BT-549,35.5 µM (inactive)
same,GI50,CAKI-1,15.6 µM (inactive)
same,GI50,CCRF-CEM,17.8 µM (inactive)
same,GI50,COLO 205,13.7 µM (inactive)
same,GI50,DU-145,37.8 µM (inactive)
same,GI50,EKVX,56.1 µM (inactive)
same,GI50,HCC 2998,3.79 µM (inactive)
same,GI50,HCT-116,7.33 µM (inactive)
same,GI50,HCT-15,> 10 µM
same,GI50,HL-60,18.9 µM (inactive)
same,GI50,HOP-62,22.5 µM (inactive)
same,GI50,HT-29,17.3 µM (inactive)
same,GI50,Hs-578T,28.6 µM (inactive)
same,GI50,IGROV-1,23.4 µM (inactive)
same,GI50,K562,23.2 µM (inactive)
same,GI50,KM12,31 µM (inactive)
same,GI50,LOX IMVI,12.9 µM (inactive)
same,GI50,M14,31.5 µM (inactive)
same,GI50,MCF7,23.1 µM (inactive)
same,GI50,MDA-MB-435,39.7 µM (inactive)
same,GI50,MDA-N,58.2 µM (inactive)
same,GI50,MOLT-4,3.94 µM (inactive)
same,GI50,Malme-3M,21.7 µM (inactive)
same,GI50,NCI-H226,12.6 µM (inactive)
same,GI50,NCI-H23,51.8 µM (inactive)
same,GI50,NCI-H460,4.23 µM (inactive)
same,GI50,NCI-H522,21.7 µM (inactive)
same,GI50,NCI/ADR-RES,23.9 µM (inactive)
same,GI50,OVCAR-3,41.8 µM (inactive)
same,GI50,OVCAR-4,40.6 µM (inactive)
same,GI50,OVCAR-5,40.9 µM (inactive)
same,GI50,OVCAR-8,14.4 µM (inactive)
same,GI50,PC-3,42 µM (inactive)
same,GI50,RPMI-8226,18.6 µM (inactive)
same,GI50,RXF 393,18.2 µM (inactive)
same,GI50,SF-268,21.6 µM (inactive)
same,GI50,SF-295,22 µM (inactive)
same,GI50,SF-539,24.8 µM (inactive)
same,GI50,SK-MEL-28,35.2 µM (inactive)
same,GI50,SK-MEL-2,18.2 µM (inactive)
same,GI50,SK-MEL-5,23 µM (inactive)
same,GI50,SN12C,25.7 µM (inactive)
same,GI50,SNB-75,13 µM (inactive)
same,GI50,SR,11.7 µM (inactive)
same,GI50,SW-620,11.9 µM (inactive)
same,GI50,T47D,18.5 µM (inactive)
same,GI50,TK-10,23.7 µM (inactive)
same,GI50,U-251,29.4 µM (inactive)
same,GI50,UACC-257,29.4 µM (inactive)
same,GI50,UACC-62,11.9 µM (inactive)
same,GI50,UO-31,11.4 µM (inactive)

# From ChEMBL document CHEMBL1201862, “PubChem BioAssay data set” (2004)
